Experimental data reported in ChEMBL document CHEMBL1152804, “Relationship between brain tissue partitioning and microemulsion retention factors of CNS drugs” (J Med Chem, 2009).

Experiments:
[1] = Lipophilicity, log P of the compound; type: physicochemical; settings: octanol/water
[2] = Lipophilicity, log P by microemulsion electrokinetic chromatography; type: physicochemical
[3] = Lipophilicity, log D at pH 7.4 by liquid chromatography; type: physicochemical; settings: buffer
[4] = Fraction unbound in rat brain; type: ADME, tissue-based
[5] = Dissociation constant, pKa by capillary electrophoresis; type: physicochemical
[6] = Dissociation constant, pKa by mass spectrometry; type: physicochemical

SMILES | logP ([1]; read-out: logP) | logP ([2]; read-out: logP) | logD [3] | other results
CCCCNc1ccc(C(=O)OCCN(C)C)cc1 [TETRACAINE] | 3.46 |  |  | 
CNC(=C[N+](=O)[O-])NCCSCc1ccc(CN(C)C)o1 [RANITIDINE] | 1.28 | 1.06 |  | 
CNCCC=C1c2ccccc2CCc2ccccc21 [NORTRIPTYLINE] | 4.39 | 4.36 | 2.8 | 
CSc1ccc2c(c1)N(CCC1CCCCN1C)c1ccccc1S2 (stereo not given) [THIORIDAZINE] |  |  | 4.4 | fraction unbound [4]: 0.001; logP [2]: 4.75
OCCOCCN1CCN(C2=Nc3ccccc3Sc3ccccc32)CC1 [QUETIAPINE] |  | 3.54 | 3.4 | pKa [5]: 6.91; pKa [6]: 3.64; fraction unbound [4]: 0.025
C[C@]12C[C@H](O)[C@H]3[C@@H](CCC4=CC(=O)CC[C@@]43C)[C@@H]1CC[C@@H]2C(=O)CO [CORTICOSTERONE] | 2.2 | 2.9 |  | 
CC(C)NCC(O)COc1cccc2[nH]ccc12 (stereo not given) [PINDOLOL] |  | 1.71 |  | 
OCCN1CCN(CCCN2c3ccccc3Sc3ccc(Cl)cc32)CC1 [PERPHENAZINE] |  | 3.83 | 4.1 | pKa [5]: 8.04; pKa [6]: 3.72; fraction unbound [4]: 0.004
Fc1ccc([C@@H]2CCNC[C@H]2COc2ccc3c(c2)OCO3)cc1 [PAROXETINE] |  | 4.07 |  | 
CN1CCCCC1CCN1c2ccccc2Sc2ccc([S+](C)[O-])cc21 (stereo not given) [MESORIDAZINE] |  | 4.26 | 1.7 | pKa [5]: 9.61; fraction unbound [4]: 0.016
COCCc1ccc(OCC(O)CNC(C)C)cc1 (stereo not given) [METOPROLOL] |  | 2.08 |  | 
NC(=O)N1c2ccccc2C=Cc2ccccc21 [CARBAMAZEPINE] | 2.34 | 2.29 |  | 
COC(=O)C(c1ccccc1)C1CCCCN1 (stereo not given) [METHYLPHENIDATE] |  | 2.67 | 0.4 | 
COc1ccc(C(CN(C)C)C2(O)CCCCC2)cc1 (stereo not given) [VENLAFAXINE] |  | 3.2 | 1 | 
CCN(CC)CCOC(=O)c1ccc(N)cc1 [PROCAINE] | 2.2 | 2.18 |  | 
c1ccc(-c2ccc(C(c3ccccc3)n3ccnc3)cc2)cc1 (stereo not given) [BIFONAZOLE] |  | 5.56 |  | 
CC(C)n1c(/C=C/C(O)CC(O)CC(=O)O)c(-c2ccc(F)cc2)c2ccccc21 (stereo not given) [FLUVASTATIN] |  | 3.92 |  | 
Cc1ncc2n1-c1ccc(Cl)cc1C(c1ccccc1F)=NC2 [MIDAZOLAM] |  | 3.65 | 3.38 | 
Clc1cccc(Cl)c1N=C1NCCN1 [CLONIDINE] | 1.57 | 1.08 |  | 
O=c1n(CCCN2CCN(c3cccc(Cl)c3)CC2)nc2ccccn12 [TRAZODONE] |  | 2.92 | 2.99 | 
CCN(CC)CCNC(=O)c1cc(Cl)c(N)cc1OC [METOCLOPRAMIDE] |  |  |  | fraction unbound [4]: 0.365
CCCC(C)(COC(N)=O)COC(=O)NC(C)C (stereo not given) [CARISOPRODOL] |  | 2.4 |  | 
COC(=O)Nc1nc2ccc(C(=O)c3ccccc3)cc2[nH]1 [MEBENDAZOLE] | 2.42 | 2.26 |  | 
COc1ccc(CN(CCN(C)C)c2ccccn2)cc1 [PYRILAMINE] | 3.12 |  |  | 
CN1CCN(C2=Nc3cc(Cl)ccc3Nc3ccccc32)CC1 [CLOZAPINE] | 4.1 | 3.6 | 3.48 | 
CNCCCC12CCC(c3ccccc31)c1ccccc12 [MAPROTILINE] |  | 4.67 |  | pKa [5]: 10.6; fraction unbound [4]: 0.006
CN1CCOC(c2ccccc2)c2ccccc2C1 (stereo not given) [NEFOPAM] | 3.02 | 3.2 |  | 

SMILES | logP ([1]; read-out: logP) | logP ([2]; read-out: logP) | logD [3] | other results
CCOC(=O)c1ccc(N)cc1 [BENZOCAINE] | 1.89 | 1.79 |  | 
OCCOCCN1CCN(C(c2ccccc2)c2ccc(Cl)cc2)CC1 (stereo not given) [HYDROXYZINE] |  |  | 3.6 | logP [2]: 4
Cc1cc2c(s1)Nc1ccccc1N=C2N1CCN(C)CC1 [OLANZAPINE] |  | 3.21 |  | pKa [5]: 8.5; pKa [6]: 4.66; fraction unbound [4]: 0.034
Clc1ccc2c(c1)C(N1CCNCC1)=Nc1ccccc1O2 [AMOXAPINE] |  | 3.71 | 2.4 | pKa [5]: 8.71; pKa [6]: 3.38; fraction unbound [4]: 0.01
O=C(CCCN1CCC(O)(c2ccc(Cl)cc2)CC1)c1ccc(F)cc1 [HALOPERIDOL] | 3.67 | 3.53 |  | 
COc1cc(NC(C)CCCN)c2ncccc2c1 (stereo not given) [PRIMAQUINE] | 3 |  |  | logP [2]: 3.8
CN(C)CCC=C1c2ccccc2COc2ccccc21 [DOXEPIN] | 4.29 | 4.07 | 2.3 | pKa [5]: 9.37; fraction unbound [4]: 0.025
CCCN1C[C@H](CSC)C[C@@H]2c3cccc4[nH]cc(c34)C[C@H]21 [PERGOLIDE] |  | 4.22 | 3 | pKa [5]: 8.78; fraction unbound [4]: 0.027
NC12CC3CC(CC(C3)C1)C2 [AMANTADINE] |  | 2.82 | < 0 | fraction unbound [4]: 0.233
C[C@]12CCC(=O)C=C1CC[C@@H]1[C@@H]2[C@@H](O)C[C@@]2(C)[C@H]1CC[C@]2(O)C(=O)CO [HYDROCORTISONE] | 1.65 | 2.38 |  | 
Cc1ccc(-c2nc3ccc(C)cn3c2CC(=O)N(C)C)cc1 [ZOLPIDEM] |  | 2.2 | 2.3 | 
CCOC(=O)c1ncn2c1CN(C)C(=O)c1cc(F)ccc1-2 [FLUMAZENIL] | 1.64 | 0.92 |  | 
Nc1nnc(-c2cccc(Cl)c2Cl)c(N)n1 [LAMOTRIGINE] |  | 1.6 | < 0 | 
C=CCc1ccccc1OCC(O)CNC(C)C (stereo not given) [ALPRENOLOL] | 2.99 | 3.57 |  | 
CN1CCN2c3ncccc3Cc3ccccc3C2C1 (stereo not given) [MIRTAZAPINE] |  | 3.48 | 2.3 | pKa [5]: 7.79; pKa [6]: 3.59; fraction unbound [4]: 0.08
Nc1c2c(nc3ccccc13)CCCC2 [TACRINE] |  |  |  | fraction unbound [4]: 0.124
CN1CCN(C2=Nc3ccccc3Oc3ccc(Cl)cc32)CC1 [LOXAPINE] |  |  |  | fraction unbound [4]: 0.011
CN(C)CCCN1c2ccccc2Sc2ccc(Cl)cc21 [CHLORPROMAZINE] | 4.74 |  |  | 
CN1C(C(=O)Nc2ccccn2)=C(O)c2ccccc2S1(=O)=O [PIROXICAM] | 1.68 | 1.45 |  | 
COc1ccc(Cc2nccc3cc(OC)c(OC)cc23)cc1OC [PAPAVERINE] |  | 2.73 |  | 
O=C(c1ccccc1)c1ccc2n1CCC2C(=O)O (stereo not given) [KETOROLAC] |  |  |  | logP [1]: 1.26; logP [2]: 1.68
CN1CCC[C@H]1c1cccnc1 [NICOTINE] | 1.39 | 1.22 |  | 
CC(NC(C)(C)C)C(=O)c1cccc(Cl)c1 (stereo not given) [BUPROPION] | 3.21 | 3.76 |  | 
CNS(=O)(=O)Cc1ccc2[nH]cc(CCN(C)C)c2c1 |  | 1.41 | < 0 | pKa [5]: 9.68; fraction unbound [4]: 0.724
CN(C)CCC=C1c2ccccc2C=Cc2ccccc21 [CYCLOBENZAPRINE] |  | 4.81 |  | 
Cc1nc2n(c(=O)c1CCN1CCC(c3noc4cc(F)ccc34)CC1)CCCC2 [RISPERIDONE] |  | 2.86 | 1.71 | 
